Our source for the IC50 values is US8664257B2, “Oxygen-substituted 3-heteroaroylamino-propionic acid derivatives and their use as pharmaceuticals” (Sanofi, priority 2010, dated 2014).

In general, IC50 refers to the midpoint of a concentration-inhibition curve.

One assay addresses T1, Recombinant human cathepsin A (Homo sapiens, UniProt P10619).
T1 construct: Recombinant human cathepsin A (residues 29-480, with a C-terminal 10-His tag); 10-His (C); purchased R&D Systems 1049-SE
T1 sequence (P10619 29-312 limits assumed): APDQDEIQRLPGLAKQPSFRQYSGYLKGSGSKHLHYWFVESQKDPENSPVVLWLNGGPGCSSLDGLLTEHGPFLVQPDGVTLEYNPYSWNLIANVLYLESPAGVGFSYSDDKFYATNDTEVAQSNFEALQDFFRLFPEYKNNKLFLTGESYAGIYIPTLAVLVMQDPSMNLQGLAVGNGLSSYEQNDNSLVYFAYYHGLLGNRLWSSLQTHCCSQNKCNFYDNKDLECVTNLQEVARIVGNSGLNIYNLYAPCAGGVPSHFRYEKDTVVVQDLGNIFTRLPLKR
T1 sequence (P10619 327-480 limits assumed): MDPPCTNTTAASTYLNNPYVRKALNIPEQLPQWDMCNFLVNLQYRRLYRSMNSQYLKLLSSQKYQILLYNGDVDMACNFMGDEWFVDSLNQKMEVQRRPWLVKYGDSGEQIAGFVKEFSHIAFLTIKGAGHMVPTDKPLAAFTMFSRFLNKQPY
Put plainly: Cathepsin A inhibitory activity. The assay is classed as biochemical. The conditions noted are these: pharmacological test "Cathepsin A inhibitory activity"; IC50 given as class A/B/C; read-out: Activity (2): Cathepsin A inhibitory activity, IC50 class. An outline of the steps: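 Read-out was microfluidic separation of cleaved vs. uncleaved Bodipy FL-bradykinin (2 μM), giving turnover, % inhibition and IC50. Compound and 833 ng/ml enzyme met for 15 min RT in pH 5.5 MES/DTT before substrate (15 min RT). The 29-480 His-tagged human enzyme was first activated by cathepsin L, then E-64 (10 μM).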
In the case of `Cc1ccc(C(CC(=O)O)NC(=O)c2cc(O)n(-c3ccccc3F)n2)c(C)c1` (stereo not shown) [Example 247], the half-maximal inhibitory concentration (IC50) was in the range of 100 to 1000 nM.

`Cc1cccc(C(CC(=O)O)NC(=O)c2cc(O)n(-c3ccc(F)cc3F)n2)c1C` (stereo not shown) [Example 191]: the half-maximal inhibitory concentration (IC50) was less than 100 nM. On the same count and under the same terms, in the case of `O=C(O)C[C@H](NC(=O)c1cc(O)n(-c2ccc(F)cc2F)n1)c1ccc(F)cc1` [Example 180] it was 100 to 1000 nM.

Staying with this assay, now noted: read-out: Activity (2): Cathepsin A inhibitory activity (IC50 class).
As to `Cc1ccccc1[C@H](CC(=O)O)NC(=O)c1cc(OCc2ccon2)n(-c2ccccc2F)n1` [Example 647], the IC50 was less than 100 nM.

Turning to `CCOc1cc(C(=O)N[C@@H](CC(=O)O)c2ccccc2OC)nn1-c1ccccc1Cl` [Example 729], the IC50 lay within 100 to 1000 nM.

On to `Cc1ccc(C(CC(=O)O)NC(=O)c2cc(O)n(-c3ccccc3)n2)c(F)c1` (stereo not shown) [Example 564, 3-(2-Fluoro-4-methyl-phenyl)-3-[(5-hydroxy-1-phenyl-1H-pyrazole-3-carbonyl)-amino]-propionic acid], for which the IC50 lay within 100 to 1000 nM. Same read-out and setting: in the case of `Cc1ccccc1[C@H](CC(=O)O)NC(=O)c1cc(OC[C@@](C)(O)C(C)(C)C)n(-c2ccccc2F)n1` (single isomer, unassigned) [Example 748] it was less than 100 nM; in that of `CCOc1cc(C(=O)N[C@@H](CC(=O)O)c2ccc(C)cc2)nn1-c1ccccc1Cl` [Example 736], less than 100 nM. Regarding `COc1cccc([C@H](CC(=O)O)NC(=O)c2cc(OC[C@@](C)(O)C(C)C)n(-c3ccccc3F)n2)c1OC` [Example 769], the IC50 is less than 100 nM. The same measure, in the same setting: in the case of `COc1cc(C(=O)N[C@@H](CC(=O)O)c2cccc(Cl)c2Cl)nn1-c1ccccc1F` [Example 681] it was less than 100 nM. On the same count and under the same terms, in the case of `COc1c(Br)c(C(=O)N[C@@H](CC(=O)O)c2ccccc2C)nn1-c1ccccc1F` [Example 594] it was less than 100 nM; in that of `Cc1ccccc1[C@H](CC(=O)O)NC(=O)c1cc(OCC2CCCCO2)n(-c2ccccc2F)n1` (stereo partly shown) [Example 653], less than 100 nM. As for `CCOc1cc(C(=O)N[C@@H](CC(=O)O)c2ccc(C(F)(F)F)cc2)nn1-c1ccccc1F` [Example 715], the IC50 is less than 100 nM. On to `COc1ccc(F)c(C(CC(=O)O)NC(=O)c2cc(O)n(-c3ccccc3Cl)n2)c1` (stereo not shown) [Example 559, 3-{[1-(2-Chloro-phenyl)-5-hydroxy-1H-pyrazole-3-carbonyl]-amino}-3-(2-fluoro-5-methoxy-phenyl)-propionic acid], for which the half-inhibitory concentration (IC50) fell in the range of 100 to 1000 nM. `CCOc1cc(C(=O)NC(CC(=O)O)c2ccc(F)cc2C)nn1-c1ccccc1Cl` (stereo not shown) [Example 738]: the IC50 is less than 100 nM. Still for that read-out and setting: in the case of `Cc1ccccc1[C@H](CC(=O)O)NC(=O)c1cc(O)n(C2CCCC2)n1` [Example 572] it was 100 to 1000 nM. The same measure, in the same setting: with `COc1c(C)c(C(=O)NC(CC(=O)O)c2ccccc2C)nn1-c1ccccc1F` (stereo not shown) [Example 605] the figure was 1000 to 30000 nM.

Staying with this assay, now noted: read-out: Activity (2): Cathepsin A inhibitory activity, IC50 class.
For the compound `CC(C)C(C)(O)COc1cc(C(=O)NC(CC(=O)O)Cc2ccccc2)nn1-c1ccccc1F` (stereo not shown) [Example 829, 3-{[1-(2-Fluoro-phenyl)-5-(2-hydroxy-2,3-dimethyl-butoxy)-1H-pyrazole-3-carbonyl]-amino}-4-phenyl-butyric acid], the IC50 is 100 to 1000 nM. Still for that read-out and setting: with `Cc1ccc(C)c(-n2nc(C(=O)NC(CC(=O)O)C3CCCC3)cc2O)c1` (stereo not shown) [Example 44] the figure was 1000 to 30000 nM; with `Cc1ccc(C)c(C(CC(=O)O)NC(=O)c2cc(O)n(-c3cccc(F)c3)n2)c1` (stereo not shown) [Example 321], 100 to 1000 nM. The same measure, in the same setting: in the case of `O=C(O)C[C@H](NC(=O)c1cc(O)n(-c2ccc(F)cc2F)n1)c1cccnc1` [Example 389] it was 1000 to 30000 nM; in that of `CCCC(CC(=O)O)NC(=O)c1cc(O)n(-c2cc(C)ccc2C)n1` (stereo not shown) [Example 26], 1000 to 30000 nM; in that of `O=C(O)C[C@H](NC(=O)c1cc(O)n(-c2ccc(Cl)cc2)n1)c1cccc(F)c1` [Example 279], 1000 to 30000 nM. Regarding `COc1ccccc1[C@H](CC(=O)O)NC(=O)c1cc(O)n(-c2ccccc2Cl)n1` [Example 111], the IC50 fell in the range of 100 to 1000 nM.

Consider `COc1ccc(C(CC(=O)O)NC(=O)c2cc(O)n(-c3ccccc3)n2)cc1F` (stereo not shown) [Example 68], for which the IC50 lay within 1000 to 30000 nM.

On to `Cc1ccc(C)c(-n2nc(C(=O)NC(CC(=O)O)c3ccccc3C)cc2O)c1` (stereo not shown) [Example 40], for which the IC50 was in the range of 100 to 1000 nM. Still for that read-out and setting: in the case of `O=C(O)C[C@H](NC(=O)c1cc(O)n(-c2ccccc2Cl)n1)c1ccccc1C(F)(F)F` [Example 108] it was 100 to 1000 nM.

As for `CC(C)(C)[C@H](O)COc1cc(C(=O)N[C@@H](CC(=O)O)c2ccccc2Cl)nn1-c1ccccc1F` [Example 797, (S)-3-(2-Chloro-phenyl)-3-{[1-(2-fluoro-phenyl)-5-((S)-2-hydroxy-3,3-dimethyl-butoxy)-1H-pyrazole-3-carbonyl]-amino}-propionic acid], the half-maximal inhibitory concentration (IC50) is less than 100 nM. Still for that read-out and setting: with `O=C(O)CC(NC(=O)c1cc(O)n(-c2ccccc2F)n1)c1ccc(Oc2ccccc2)cc1` (stereo not shown) [Example 124] the figure was 100 to 1000 nM; with `COc1ccc(C(CC(=O)O)NC(=O)c2cc(O)n(-c3ccc(F)cc3)n2)c(F)c1` (stereo not shown) [Example 90], 1000 to 30000 nM; with `CC(C)[C@](C)(O)COc1cc(C(=O)N[C@@H](CC(=O)O)c2ccccc2F)nn1-c1ccccc1F` [Example 835, (S)-3-(2-Fluoro-phenyl)-3-{[1-(2-fluoro-phenyl)-5-((S)-2-hydroxy-2,3-dimethyl-butoxy)-1H-pyrazole-3-carbonyl]-amino}-propionic acid], less than 100 nM.

`O=C(O)CC(NC(=O)c1cc(O)n(-c2ccccc2F)n1)c1cccc(Cl)c1` (stereo not shown) [Example 396]: the IC50 lay within 100 to 1000 nM.

Take `O=C(O)CC(NC(=O)c1cc(O)n(-c2ccc(F)cc2)n1)c1ccc(Cl)cc1F` (stereo not shown) [Example 357]: the IC50 was 100 to 1000 nM. Still for that read-out and setting: with `Cc1ccc(C)c(-n2nc(C(=O)NC(CC(=O)O)C3CC3)cc2O)c1` (stereo not shown) [Example 36] the figure was 1000 to 30000 nM. The same measure, in the same setting: in the case of `CC(C)[C@](C)(O)COc1cc(C(=O)N[C@@H](CC(=O)O)c2c(F)cccc2F)nn1-c1ccccc1F` [Example 817, (S)-3-(2,6-Difluoro-phenyl)-3-{[1-(2-fluoro-phenyl)-5-((S)-2-hydroxy-2,3-dimethyl-butoxy)-1H-pyrazole-3-carbonyl]-amino}-propionic acid] it was less than 100 nM; in that of `Cc1cc(F)ccc1C(CC(=O)O)NC(=O)c1cc(O)n(-c2ccc(F)cc2)n1` (stereo not shown) [Example 364], 100 to 1000 nM.

The same assay, now with this note: recombinant human cathepsin A 833 ng/ml, Bodipy FL-labeled bradykinin 2 μM, pH 5.5; read-out: CATH-A IC50.
`Cc1ccc(C(CC(=O)O)NC(=O)c2cc(O)n(-c3ccccc3)n2)c(F)c1` (stereo not shown) [Example 564, 3-(2-Fluoro-4-methyl-phenyl)-3-[(5-hydroxy-1-phenyl-1H-pyrazole-3-carbonyl)-amino]-propionic acid]: the IC50 was found to be 459 nM. Same read-out and setting: with `Cc1ccccc1[C@H](CC(=O)O)NC(=O)c1cc(OC[C@@](C)(O)C(C)(C)C)n(-c2ccccc2F)n1` (single isomer, unassigned) [Example 748] the figure was 2.56 nM; with `COc1ccc(F)c(C(CC(=O)O)NC(=O)c2cc(O)n(-c3ccccc3Cl)n2)c1` (stereo not shown) [Example 559, 3-{[1-(2-Chloro-phenyl)-5-hydroxy-1H-pyrazole-3-carbonyl]-amino}-3-(2-fluoro-5-methoxy-phenyl)-propionic acid], 731 nM.

Still in this assay, the particulars now being: recombinant human cathepsin A; read-out: Activity (2): Cathepsin A inhibitory activity, IC50 class.
Consider `COc1cccc([C@H](CC(=O)O)NC(=O)c2cc(O)n(-c3cccc(F)c3)n2)c1` [Example 429], for which the IC50 was in the range of 100 to 1000 nM. The same measure, in the same setting: in the case of `COc1cc(C(=O)N[C@@H](CC(=O)N[C@H](C)C(C)C)c2ccccc2C)nn1-c1ccccc1F` [Example 939, 1-(2-Fluoro-phenyl)-5-methoxy-1H-pyrazole-3-carboxylic acid [(S)-2-((R)-1,2-dimethyl-propylcarbamoyl)-1-o-tolyl-ethyl]-amide] it was less than 100 nM; in that of `Cc1cccc(C(CC(=O)O)NC(=O)c2cc(O)n(-c3cccc(F)c3)n2)c1C` (stereo not shown) [Example 432], 100 to 1000 nM. Still for that read-out and setting: with `O=C(O)CC(NC(=O)c1cc(O)n(-c2cccc(Cl)c2)n1)c1ccc(-c2ccccc2)cc1` (stereo not shown) [Example 421] the figure was 100 to 1000 nM.
